Test results reported in patent publication EP1283052A1, “Pharmaceutical composition containing caspase-8 and /or caspase-9 useful for overcoming glucocorticoid- and cancer therapy-induced apoptosis of tumours” (Deutsches Krebsforschungszentrum Stiftung des öffentlichen …, priority 2001, dated 2003).

What was measured:
caspase-9 and -6 = test: Fluorometric caspase-6/9 activity assay in CEM cells; type: cell-based, human; conditions: cisplatin 2 µg/ml alone, Fig. 5a
Protocol: • (a) P693 and CEM cells were treated with cisplatin (2 µg/ml) in the absence or presence of DEX (1 µM) as indicated. 24 and 48 h following treatment cells were lysed and caspase-9 activity was determined using a fluorescent caspase-9 assay and spectroscopy. • (b) P5 and CEM cells were treated as described above. 24 h after stimulation Apaf-1 was immunoprecipitated from the cell extracts using a […]. Aliquotes of the precipitates were separated by three different gels and analysed by Western blotting using rabbit polyclonal Apaf-1, mAb cytochrome c or caspase-9 antibodies. The antibody heavy chain band (IgGH) ensures equal conditions. […]
• (A) Cell culture. […] The mice were given 0.28 mg/L DEX in drinking water, and the amount of water consumed was monitored. […] The tumour volumes were measured using callipers, and calculated using, as an approximation, the formula for volume of a hemi-ellipsoid: π(width^2 x length)/6. […] Early apoptotic changes were identified by staining of cells with fluoresceinthiocyanate (FITC)-conjugated annexin V and propidium iodide (Becton Dickinson, Heidelberg, Germany) and analysed by flow cytometry (FACScan, Becton Dickinson) as described (Herr et al., EMBO J. 16 (1997), 6200-6208) • (E) Immunohistochemistry. […] Bound antibodies were detected by FITC conjugated anti-mouse or anti-rabbit IgG (Molecular Probes Europe, Leiden, The Netherlands). […]

caspase-9 = test: Caspase-9 expression in leukemic T cells; type: cell-based, human; conditions: cisplatin, data not shown

N.N.[Cl][Pt][Cl] [cisplatin]
caspase-6/9 activity (caspase-9 and -6): induced 24 h following cisplatin in P693 and CEM cells with increasing activity at 48 h
expression of caspase-9 (caspase-9): neither induced
